Earlier results in patent US20240180842A1, “COLON TARGETED DRUG DELIVERY” (Axial Therapeutics, Inc., priority 2022, published 2024).

Test system: ASD individuals with high irritability (ABC-I≥18)
Conditions: phase 3 study, drug arms; placebo arm 34.7%

## O=C1CCc2ccc(OCCCCN3CCN(c4cccc(Cl)c4Cl)CC3)cc2N1 [aripiprazole]
  response rate (25% improvement in ABC-I scores and CGI-I≤2): 49-56%
